Columns and labels:
[1] = biological target: T1, hERG (hERG1a, Kv11.1) potassium channel (Homo sapiens, UniProt Q12809); assay: whole-cell patch clamp, tail current inhibition; assay type: cell-based
T1 construct: gene KCNH2; WT hERG1a stably expressed in HEK293 cells

[2] = biological target: T2, hERG (hERG1a, Kv11.1) potassium channel (Homo sapiens, UniProt Q12809, F656V)
T2 construct: gene KCNH2

[3] = biological target: T3, hERG (hERG1a, Kv11.1) potassium channel (Homo sapiens, UniProt Q12809, Y652A); assay: whole-cell patch clamp, tail current inhibition; assay type: cell-based
T3 construct: gene KCNH2; hERG1a Y652A transiently expressed in HEK293 cells

[4] = biological target: T4, zebrafish ERG (zERG) (Danio rerio, UniProt A0A8M1PIE0); assay: whole-cell patch clamp, current inhibition; assay type: cell-based
T4 construct: gene kcnh6a

[5] = biological target: T5, hERG (hERG1a, Kv11.1) potassium channel (Homo sapiens, UniProt Q12809, F656T); assay: whole-cell patch clamp, tail current block by […]; assay type: cell-based
T5 construct: gene KCNH2; hERG1a F656T transiently expressed in HEK293 cells

T2 sequence (Q12809 whole entry F656V): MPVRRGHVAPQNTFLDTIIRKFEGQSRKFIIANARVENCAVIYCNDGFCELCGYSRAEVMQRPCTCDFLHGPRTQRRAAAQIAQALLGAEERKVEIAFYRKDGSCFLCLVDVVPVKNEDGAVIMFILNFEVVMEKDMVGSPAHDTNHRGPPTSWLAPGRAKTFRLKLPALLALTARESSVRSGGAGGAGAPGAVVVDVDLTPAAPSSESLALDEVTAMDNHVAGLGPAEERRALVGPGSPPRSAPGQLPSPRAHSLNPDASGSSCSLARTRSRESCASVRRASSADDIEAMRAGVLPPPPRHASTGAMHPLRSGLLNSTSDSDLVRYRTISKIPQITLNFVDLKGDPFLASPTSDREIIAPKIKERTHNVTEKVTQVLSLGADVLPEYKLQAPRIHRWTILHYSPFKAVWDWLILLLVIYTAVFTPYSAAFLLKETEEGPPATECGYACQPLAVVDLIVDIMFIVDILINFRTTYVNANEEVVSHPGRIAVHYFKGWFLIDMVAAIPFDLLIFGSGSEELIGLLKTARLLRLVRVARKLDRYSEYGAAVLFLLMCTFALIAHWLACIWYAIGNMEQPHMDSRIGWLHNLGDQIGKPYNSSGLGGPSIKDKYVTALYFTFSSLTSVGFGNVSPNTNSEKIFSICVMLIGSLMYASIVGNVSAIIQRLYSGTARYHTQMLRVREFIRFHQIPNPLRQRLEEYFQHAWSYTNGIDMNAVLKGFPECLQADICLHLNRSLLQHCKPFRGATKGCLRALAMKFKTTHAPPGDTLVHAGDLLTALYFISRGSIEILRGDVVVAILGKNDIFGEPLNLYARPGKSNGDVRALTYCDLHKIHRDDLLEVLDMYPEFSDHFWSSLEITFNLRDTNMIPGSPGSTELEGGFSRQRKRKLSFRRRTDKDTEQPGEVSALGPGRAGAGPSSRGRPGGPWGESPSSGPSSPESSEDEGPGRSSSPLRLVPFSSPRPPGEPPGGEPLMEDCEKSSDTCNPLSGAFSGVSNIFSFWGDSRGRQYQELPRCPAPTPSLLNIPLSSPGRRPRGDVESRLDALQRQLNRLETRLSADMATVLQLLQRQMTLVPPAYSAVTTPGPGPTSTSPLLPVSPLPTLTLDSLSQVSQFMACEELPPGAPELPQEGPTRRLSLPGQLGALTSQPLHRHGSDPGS
T1 sequence (Q12809 whole entry): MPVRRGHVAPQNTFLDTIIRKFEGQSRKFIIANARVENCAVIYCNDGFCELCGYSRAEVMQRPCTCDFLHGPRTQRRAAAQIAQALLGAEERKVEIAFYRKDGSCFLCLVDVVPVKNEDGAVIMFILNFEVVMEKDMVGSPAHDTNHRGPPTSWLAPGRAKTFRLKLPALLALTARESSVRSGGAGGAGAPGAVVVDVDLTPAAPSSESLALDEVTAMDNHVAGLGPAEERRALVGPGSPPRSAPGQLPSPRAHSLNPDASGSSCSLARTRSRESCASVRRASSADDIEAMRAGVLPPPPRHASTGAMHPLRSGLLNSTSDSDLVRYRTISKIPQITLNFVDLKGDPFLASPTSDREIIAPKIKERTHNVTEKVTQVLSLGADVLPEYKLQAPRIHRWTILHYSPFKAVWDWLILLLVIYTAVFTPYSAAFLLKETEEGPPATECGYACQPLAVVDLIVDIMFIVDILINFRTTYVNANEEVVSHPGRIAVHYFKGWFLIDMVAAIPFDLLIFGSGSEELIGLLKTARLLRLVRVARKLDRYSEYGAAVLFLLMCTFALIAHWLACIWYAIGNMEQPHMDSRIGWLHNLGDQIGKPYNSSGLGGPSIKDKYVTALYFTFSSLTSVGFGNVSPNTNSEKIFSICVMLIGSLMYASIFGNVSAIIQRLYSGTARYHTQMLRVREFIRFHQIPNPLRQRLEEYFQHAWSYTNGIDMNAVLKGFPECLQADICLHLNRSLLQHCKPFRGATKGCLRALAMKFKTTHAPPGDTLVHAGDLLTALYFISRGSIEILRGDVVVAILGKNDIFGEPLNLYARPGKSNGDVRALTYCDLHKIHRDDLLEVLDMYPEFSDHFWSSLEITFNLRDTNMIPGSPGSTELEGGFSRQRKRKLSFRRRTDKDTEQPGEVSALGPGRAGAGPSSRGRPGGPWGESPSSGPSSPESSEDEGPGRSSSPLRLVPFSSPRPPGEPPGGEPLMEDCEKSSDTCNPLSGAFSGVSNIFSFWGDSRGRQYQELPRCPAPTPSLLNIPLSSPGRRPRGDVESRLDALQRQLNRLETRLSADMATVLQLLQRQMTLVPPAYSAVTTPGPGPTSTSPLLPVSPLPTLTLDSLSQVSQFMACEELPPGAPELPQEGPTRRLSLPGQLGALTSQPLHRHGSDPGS
T3 sequence (Q12809 whole entry Y652A): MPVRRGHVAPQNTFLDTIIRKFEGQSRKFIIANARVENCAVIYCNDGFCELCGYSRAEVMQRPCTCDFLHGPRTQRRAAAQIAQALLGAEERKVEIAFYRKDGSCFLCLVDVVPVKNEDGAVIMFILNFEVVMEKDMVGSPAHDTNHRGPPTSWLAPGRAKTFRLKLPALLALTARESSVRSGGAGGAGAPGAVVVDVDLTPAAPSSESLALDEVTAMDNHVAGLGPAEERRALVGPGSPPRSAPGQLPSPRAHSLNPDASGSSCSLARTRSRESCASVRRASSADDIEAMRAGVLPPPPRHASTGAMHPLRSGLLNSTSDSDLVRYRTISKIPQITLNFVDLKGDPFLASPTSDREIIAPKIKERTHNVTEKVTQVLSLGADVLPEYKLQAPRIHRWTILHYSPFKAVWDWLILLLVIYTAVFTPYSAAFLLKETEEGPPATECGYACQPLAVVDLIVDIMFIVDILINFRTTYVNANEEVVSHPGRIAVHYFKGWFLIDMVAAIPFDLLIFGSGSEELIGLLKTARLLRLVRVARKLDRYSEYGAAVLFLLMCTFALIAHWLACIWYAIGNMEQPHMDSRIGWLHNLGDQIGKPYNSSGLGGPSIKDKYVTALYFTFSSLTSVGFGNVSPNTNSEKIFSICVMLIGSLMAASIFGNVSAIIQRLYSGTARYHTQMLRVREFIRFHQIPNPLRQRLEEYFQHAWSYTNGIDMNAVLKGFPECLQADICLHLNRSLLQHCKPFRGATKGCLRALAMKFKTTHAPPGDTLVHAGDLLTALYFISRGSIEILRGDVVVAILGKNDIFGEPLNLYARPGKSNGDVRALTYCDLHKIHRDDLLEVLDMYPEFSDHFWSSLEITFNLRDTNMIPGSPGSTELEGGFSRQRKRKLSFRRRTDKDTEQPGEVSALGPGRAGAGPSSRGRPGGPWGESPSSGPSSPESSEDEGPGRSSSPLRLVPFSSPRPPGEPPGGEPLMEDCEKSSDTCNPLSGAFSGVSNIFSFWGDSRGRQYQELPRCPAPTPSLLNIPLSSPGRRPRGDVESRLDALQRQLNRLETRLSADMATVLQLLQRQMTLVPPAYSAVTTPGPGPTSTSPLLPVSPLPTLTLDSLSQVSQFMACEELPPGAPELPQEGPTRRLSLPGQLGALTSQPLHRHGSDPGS
T4 sequence (A0A8M1PIE0 1-1186): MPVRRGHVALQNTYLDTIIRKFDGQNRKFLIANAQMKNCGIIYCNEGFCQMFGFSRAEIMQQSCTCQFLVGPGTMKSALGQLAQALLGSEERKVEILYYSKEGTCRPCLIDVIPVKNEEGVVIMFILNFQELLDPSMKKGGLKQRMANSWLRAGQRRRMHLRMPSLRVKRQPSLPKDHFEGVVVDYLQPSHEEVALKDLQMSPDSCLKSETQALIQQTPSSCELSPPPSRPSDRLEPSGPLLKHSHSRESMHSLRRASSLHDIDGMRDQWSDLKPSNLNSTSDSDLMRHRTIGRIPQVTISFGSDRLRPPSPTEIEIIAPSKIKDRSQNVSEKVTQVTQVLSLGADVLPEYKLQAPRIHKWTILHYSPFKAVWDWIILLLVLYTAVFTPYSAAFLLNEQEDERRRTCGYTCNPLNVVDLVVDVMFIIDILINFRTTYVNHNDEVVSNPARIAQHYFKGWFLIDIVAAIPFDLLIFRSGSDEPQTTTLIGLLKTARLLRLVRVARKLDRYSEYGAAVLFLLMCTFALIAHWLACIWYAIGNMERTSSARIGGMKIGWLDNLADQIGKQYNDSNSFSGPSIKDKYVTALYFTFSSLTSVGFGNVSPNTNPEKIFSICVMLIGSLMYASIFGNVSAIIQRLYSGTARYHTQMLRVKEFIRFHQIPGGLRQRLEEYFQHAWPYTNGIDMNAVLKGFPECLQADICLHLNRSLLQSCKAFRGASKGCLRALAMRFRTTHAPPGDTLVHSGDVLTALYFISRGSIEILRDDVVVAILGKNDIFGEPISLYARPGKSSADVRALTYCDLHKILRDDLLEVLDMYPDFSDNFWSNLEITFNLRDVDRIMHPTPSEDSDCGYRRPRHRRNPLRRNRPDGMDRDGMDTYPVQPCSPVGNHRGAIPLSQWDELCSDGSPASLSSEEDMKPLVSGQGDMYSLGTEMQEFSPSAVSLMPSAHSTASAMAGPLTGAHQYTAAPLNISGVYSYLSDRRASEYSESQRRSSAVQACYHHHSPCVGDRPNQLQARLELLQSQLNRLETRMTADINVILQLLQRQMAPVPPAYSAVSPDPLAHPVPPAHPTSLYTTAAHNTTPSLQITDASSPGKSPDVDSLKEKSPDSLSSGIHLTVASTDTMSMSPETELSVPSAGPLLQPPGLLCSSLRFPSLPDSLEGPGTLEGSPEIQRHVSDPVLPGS

c1ccc2c(c1)ccc1ccccc12 [phenanthrene]
IC50 [1]: 17.6 ± 1.7 µM | whole-cell patch clamp, tail current block by 30 μM [2]: also did not impair the inhibitory effect of phenanthrene, showing a trend towards increased block | IC50 [3]: 0.46 ± 0.01 µM | IC50 [4]: 8.77 ± 0.93 µM | whole-cell patch clamp, tail current block by 30 μM [5]: this effect was not statistically significantly different from block of WT IhERG
